According to patent US7470434B1, “Methods and compositions for blocking microbial adherence to eukaryotic cells” (priority 2007, dated 2008):

Tests used:
Type in all cases: in vivo, human
[1] = tested on: bacteria adherent to gingival epithelial cells; test: Treatment of gingival infection: microbial adherence to gingival epithelial cells (Giemsa-stained gingival scrapings); conditions: for Gingival epithelial cells with 0 Bacteria / Gingival epithelial cells with 1-10 Bacteria / Gingival epithelial cells with 10-100 Bacteria / Gingival epithelial cells with Contiguous lawn: powder on gums twice daily
Source text: In this example isoleucine was applied as a pure crystalline powder directly to the gums. The individuals were normal human volunteers. Each individual had clinically evident low grade gingivitis, as determined by the puffiness of the gingival margin and a history of some bleeding during normal dental brushing. Oral health care comprised twice daily flossing and dental brushing with a non-medicated toothpaste. No oral antiseptic was used. The individuals were not taking antibiotics. Isoleucine was applied by application of powder on the fingertip to the outer and inner gum margins of the upper and lower jaws. The entirety of the gingival surface was covered manually, twice daily. The AM application was performed following breakfast, immediately after brushing. The PM application was conducted prior to retiring for sleep.
Gingival surface was gently scrapped with the side of a rectangular glass cover slip and the material described was applied to a glass microscope slide and air-dried. The slide was stained in concentrated Giemsa stain for 1 min, then destained in water for 5 min. The slide was then air-dried and mounted with a cover slip cemented with Permount. Slides were examined by light microscopy at 100× and 400× magnification. Under these staining conditions bacteria were clearly visualized as dark blue particles against the pale gray epithelial cells.
Gingival scrapings were taken in the morning prior to normal oral care and prior to eating. Prior to scraping, the subject rinsed the mouth with a cup of water to wash free particulate matter, unattached cells, and bacteria.
Scrapings were taken 3 days and 1 day prior to isoleucine administration and 1, 3, 5, and 7 days during isoleucine application. […] The bacteria adherent were represented by several different species, distinguished by morphology. […] At least 200 bacteria were counted on the average on each cell.

[2] = tested on: diarrheal agent (nature not known); test: Amelioration of infectious diarrhea by oral isoleucine solution
Protocol: In this example isoleucine was administered to treat infectious diarrhea. In this example three individuals were naturally innoculated by a common agent. The nature of the diarrheal agent is not known. The duration of diarrhea was consistent with an infectious etiology. Isoleucine was utilized based on the hypothesis that reduction in microbial adherence would likely limit the continued re-infection of the gut wall by the agent, and/or prevent attachment of opportunistic commensal organisms.
Three members of a family traveling in the Middle East (MZ, BZ, JZ) contracted watery diarrhea, associated with food intolerance, following a meal they shared at a restaurant. Each individual had been in excellent health without prior history of GI complaints. All were unmedicated, including aspirin or antihistanines. […] Diarrhea was watery, without gross blood, minimal mucous, slight fever with chills, no nausea, and persistence of hunger. Peristalsis was vigorous and increased by ingestion of food. Each individual was placed on a diet restricted to clear liquids (juices and soda), digestible carbohydrates (bread, rice, candy). No medications were administered.
Six days after ingestion of the diarrheal agent, one individual was begun on oral isoleucine (ILE) therapy, while the other two continued on restricted diets. ILE (#E-2025 Bachem, lot 511191) was dissolved in distilled water to 0.001%. One glass of ILE solution (about 250 ml) was consumed every several hours. A total of about 4 liters was consumed over 3½ days. A reduction in stool frequency was noted within 12 hours of initiation of ILE therapy.
BZ and JZ both continued to experience diarrhea unabated until about 11 days after ingestion of the infectious agent, with stool frequency decreasing noticeably. […] Thus, isoleucine therapy was associated with a shortening of the duration of diarrhea by approximately three days.

[3] = Amelioration of irritable bowel syndrome by isoleucine in yogurt
Protocol: In this example isoleucine was administered to individuals who experienced irritable bowel syndrome (IBS). IBS is a loosely defined condition associated with bowel discomfort including abdominal bloating, nausea, pain and a sense of incomplete bowel movements. The etiology underlying IBS is unknown. It is our hypothesis that IBS results from adherence of certain “pathogenic” commensal organisms to the epithelial lining of certain segments of the GI tract, resulting in disturbance of normal host-bacteria relationships. […] Two women, each in their mid-50's, presented with a history of IBS of over 20 years, in each case. In each, IBS was characterized by a sense of bloating experienced after eating cooked or raw vegetables, fruits, and meat. Each individual experienced urgency to move her bowels several times a day to an extent that often awakened the individuals from sleep. Bloating was accompanied by abdominal discomfort, described as mild cramps. Individuals felt “gassy” most of the day. Each individual was given isoleucine, 1 tsp, twice a day, each dose mixed in ½ cup of yogurt. The yogurt was included to promote reinoculation of the GI tract with probiotic “good” bacteria. In each case, it was known from previous experience that yogurt itself had little effect on the IBS experienced by these individuals. Within 2 day so isoleucine administration, bloating, urgency to defecate, and gassiness had disappeared. Both individuals described the state of their bowel function as “normal”, for the first time in 20 years. […] Each was then withdrawn from isoleucine, and provided yogurt unsupplemented with isoleucine. Within about 2 days both women recorded a reappearance of the former symptoms of IBS.

bacterial vaginosis = test: Amelioration of bacterial vaginosis by local isoleucine powder
Protocol: In this example isoleucine was administered locally to the vagina to treat the symptoms of bacterial vaginosis. By inhibiting the adherence of bacteria to the wall of the vagina, microbial growth, inflammation, and associated signs of malodorous discharge and symptoms such as pruritis can be treated. A person, with a normal menstrual cycle and in excellent health, experienced vaginal irritation and malodorous discharge associated with their cycle, generally beginning several days prior to the onset of their period. Isoleucine was self-administered as a powder locally within the vaginal cavity digitally, twice a day. Within 2 days symptoms of vaginosis disappeared. Isoleucine therapy was continued for several days following termination of menstrual discharge, and then stopped. […] Isoleucine was again administered during the following months, cycled as described initially.

[4] = Day 1 of isoleucine application
[5] = Day 3 of isoleucine application
[6] = Day 7 of isoleucine application
[7] = 3rd day of ILE therapy, individual

Which “Gingival epithelial cells with 0 Bacteria” value [1, 4] does the source give for `CC[C@H](C)[C@H](N)C(=O)O` [isoleucine] here?
The value was 0 % cells.

And the “Gingival epithelial cells with 1-10 Bacteria” value [1, 4]?
The value was 10 % cells.

What about the “Gingival epithelial cells with 10-100 Bacteria” value [1, 4] of the same compound?
Its value is 10 % cells.

And the “Gingival epithelial cells with Contiguous lawn” value [1, 4]?
The value was 80 % cells.

What about the “Adherent bacteria in gingival smear” value ([1]; Day 3) of the same compound?
Its value is “dramatic reduction”.

And the “Cells fully covered with bacteria, of 100 cells examined” value ([1]; Day 3)?
The value was 40.

And the “Microcolonies (contiguous groupings of greater than 4 organisms) on cells” value ([1]; Day 3)?
Its value is “Few”.

And the “Neutrophils in gingival smear (sign of inflammation)” value ([1]; Day 3)?
Its value is “No neutrophils were evident”.

What about the “Total adherent bacteria per cell (most cells)” value ([1]; Day 3) of the same compound?
The value was less than 100.

What about the “Gingival epithelial cells with 0 Bacteria” value [1, 5] of the same compound?
The value was 15 % cells.

And the “Gingival epithelial cells with 1-10 Bacteria” value [1, 5]?
The value was 15 % cells.

And the “Gingival epithelial cells with 10-100 Bacteria” value [1, 5]?
The value was 30 % cells.

And the “Gingival epithelial cells with Contiguous lawn” value [1, 5]?
The value was 40 % cells.

And the “Cells completely free of bacteria” value ([1]; Day 7)?
Its value is 80%.

What about the “Cells fully covered with adherent bacteria” value ([1]; Day 7) of the same compound?
Its value is 5%.

And the “Cells with 1 to 10 bacteria/cell” value ([1]; Day 7)?
The value was 15%.

And the “Breath as described by an examiner” value ([1]; Day 7, in the AM, prior to oral hygiene)?
Its value is “free of odor”.

What about the “Gingival epithelial cells with 0 Bacteria” value [1, 6] of the same compound?
Its value is 80 % cells.

What about the “Gingival epithelial cells with 1-10 Bacteria” value [1, 6] of the same compound?
Its value is 15 % cells.

And the “Gingival epithelial cells with 10-100 Bacteria” value [1, 6]?
The value was 0 % cells.

What about the “Gingival epithelial cells with Contiguous lawn” value [1, 6] of the same compound?
Its value is 5 % cells.

What about the “Change in the number of epithelial cells covered with a dense coat of bacteria” value ([1]; gingival smear, Day 1 following initiation) of the same compound?
The value was “little change”.

And the Food tolerance [2, 7]?
Its Food tolerance is “cheese and chicken tolerated”.

And the Stools passed [2, 7]?
Its Stools passed is “no stools were passed”.

And the “Shortening of the duration of diarrhea” value ([2]; MZ on isoleucine versus BZ and JZ on restricted diet only)?
Its value is “approximately three”.

And the “Day following ILE treatment by which a normal stool was passed and the diarrheal episode had passed” value ([2]; individual MZ)?
Its value is no more than 4 days.

And the “Time to reduction in stool frequency after initiation of ILE therapy” value ([2]; one individual, 0.001% ILE in distilled water, about 250 ml every several hours, begun six days after ingestion of agent)?
Its value is no more than 12 h.

What about the Response during maintenance ([3]; maintained on isoleucine for 1 month) of the same compound?
The Response during maintenance was “consistent response”.

And the “State of bowel function as described by the individuals” value ([3]; on isoleucine 1 tsp twice a day in yogurt)?
The value was “normal”.

And the “Time to reappearance of former symptoms of IBS after withdrawal from isoleucine” value ([3]; yogurt unsupplemented with isoleucine)?
The value was no more than 2 days.

What about the “Status following cessation of isoleucine administration” value (bacterial vaginosis; after therapy continued several days past menstrual discharge) of the same compound?
The value was “remained symptom free”.

And the “Overall outcome of chronic vaginosis” value (bacterial vaginosis; repeated cycled administration in following months, based on symptoms and signs)?
The value was “effectively cured”.
